Here are results for 24 compounds from US8822462B2, “Subunit selective NMDA receptor potentiators for the treatment of neurological conditions” (Emory University, priority 2009, dated 2014).

The target of one test is T1, NR1/NR2B (Homo sapiens, UniProt Q05586+Q13224).
T1 construct: expressed in transfected cells; host or cells: Xenopus laevis oocytes
Put plainly: Two electrode voltage clamp, Xenopus laevis oocytes expressing NR1/NR2B. The test is classed as cell-based. The following applies: for IC50: fitted to composite concentration-effect data, Max 0 = inhibition, read-out: 2B IC50. As to the method: (§1) In the table above, potency is expressed as fitted EC50 value to average composite concentration-effect data constructed from current responses recorded under two electrode voltage clamp from Xenopus laevis oocytes expressing either NR1/NR2A, B, C, or D, GluR1, or GluR6. No effect means less than 20% change in response amplitude at 30 μM of drug.

The next test deals with NR1/NR2D (Homo sapiens, UniProt O15399+Q05586). Put plainly: Two electrode voltage clamp, Xenopus laevis oocytes expressing NR1/NR2D. Conditions: for Emax: read-out: 2D Max.
NR1/NR2D, sequence (O15399 28-1336, species assumed, other chains not shown): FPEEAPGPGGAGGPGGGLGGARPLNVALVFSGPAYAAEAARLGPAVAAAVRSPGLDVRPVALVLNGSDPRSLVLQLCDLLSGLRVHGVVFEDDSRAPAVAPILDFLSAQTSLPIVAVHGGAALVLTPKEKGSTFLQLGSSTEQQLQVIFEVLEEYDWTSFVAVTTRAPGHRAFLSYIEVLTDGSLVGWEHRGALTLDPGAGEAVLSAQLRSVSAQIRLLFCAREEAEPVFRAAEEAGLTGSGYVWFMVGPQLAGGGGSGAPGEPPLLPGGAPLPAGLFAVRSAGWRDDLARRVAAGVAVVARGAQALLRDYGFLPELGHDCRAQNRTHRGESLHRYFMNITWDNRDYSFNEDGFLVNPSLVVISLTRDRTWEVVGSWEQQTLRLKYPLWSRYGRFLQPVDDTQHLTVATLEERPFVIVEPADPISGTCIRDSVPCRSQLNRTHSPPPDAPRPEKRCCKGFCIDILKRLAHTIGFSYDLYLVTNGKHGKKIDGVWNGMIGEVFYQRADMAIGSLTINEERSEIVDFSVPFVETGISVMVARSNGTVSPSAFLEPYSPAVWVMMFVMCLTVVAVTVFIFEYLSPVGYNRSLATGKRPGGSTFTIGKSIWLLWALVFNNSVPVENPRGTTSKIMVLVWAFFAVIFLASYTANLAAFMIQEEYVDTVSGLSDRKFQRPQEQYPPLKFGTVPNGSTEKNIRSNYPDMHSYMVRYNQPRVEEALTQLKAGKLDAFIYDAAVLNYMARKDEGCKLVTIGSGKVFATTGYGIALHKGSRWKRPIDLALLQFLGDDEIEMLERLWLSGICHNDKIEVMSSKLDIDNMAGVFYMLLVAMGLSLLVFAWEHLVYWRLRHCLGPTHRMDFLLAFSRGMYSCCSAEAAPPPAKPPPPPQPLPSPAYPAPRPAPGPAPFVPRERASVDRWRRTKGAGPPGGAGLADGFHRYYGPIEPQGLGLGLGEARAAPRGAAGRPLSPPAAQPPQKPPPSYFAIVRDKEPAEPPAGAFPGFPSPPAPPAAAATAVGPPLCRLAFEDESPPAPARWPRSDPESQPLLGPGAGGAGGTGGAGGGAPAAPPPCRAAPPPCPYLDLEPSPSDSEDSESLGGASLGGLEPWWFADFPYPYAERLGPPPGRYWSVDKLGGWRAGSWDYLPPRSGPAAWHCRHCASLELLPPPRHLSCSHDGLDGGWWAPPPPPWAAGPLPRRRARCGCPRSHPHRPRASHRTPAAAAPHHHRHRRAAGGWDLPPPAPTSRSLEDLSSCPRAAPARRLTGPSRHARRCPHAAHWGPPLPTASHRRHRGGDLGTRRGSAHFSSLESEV
Another test deals with T2, NR1/NR2C (Homo sapiens, UniProt Q05586+Q14957).
T2 construct: expressed in transfected cells; host or cells: Xenopus laevis oocytes
T2 sequence (Q14957 20-1233, species assumed, other chains not shown): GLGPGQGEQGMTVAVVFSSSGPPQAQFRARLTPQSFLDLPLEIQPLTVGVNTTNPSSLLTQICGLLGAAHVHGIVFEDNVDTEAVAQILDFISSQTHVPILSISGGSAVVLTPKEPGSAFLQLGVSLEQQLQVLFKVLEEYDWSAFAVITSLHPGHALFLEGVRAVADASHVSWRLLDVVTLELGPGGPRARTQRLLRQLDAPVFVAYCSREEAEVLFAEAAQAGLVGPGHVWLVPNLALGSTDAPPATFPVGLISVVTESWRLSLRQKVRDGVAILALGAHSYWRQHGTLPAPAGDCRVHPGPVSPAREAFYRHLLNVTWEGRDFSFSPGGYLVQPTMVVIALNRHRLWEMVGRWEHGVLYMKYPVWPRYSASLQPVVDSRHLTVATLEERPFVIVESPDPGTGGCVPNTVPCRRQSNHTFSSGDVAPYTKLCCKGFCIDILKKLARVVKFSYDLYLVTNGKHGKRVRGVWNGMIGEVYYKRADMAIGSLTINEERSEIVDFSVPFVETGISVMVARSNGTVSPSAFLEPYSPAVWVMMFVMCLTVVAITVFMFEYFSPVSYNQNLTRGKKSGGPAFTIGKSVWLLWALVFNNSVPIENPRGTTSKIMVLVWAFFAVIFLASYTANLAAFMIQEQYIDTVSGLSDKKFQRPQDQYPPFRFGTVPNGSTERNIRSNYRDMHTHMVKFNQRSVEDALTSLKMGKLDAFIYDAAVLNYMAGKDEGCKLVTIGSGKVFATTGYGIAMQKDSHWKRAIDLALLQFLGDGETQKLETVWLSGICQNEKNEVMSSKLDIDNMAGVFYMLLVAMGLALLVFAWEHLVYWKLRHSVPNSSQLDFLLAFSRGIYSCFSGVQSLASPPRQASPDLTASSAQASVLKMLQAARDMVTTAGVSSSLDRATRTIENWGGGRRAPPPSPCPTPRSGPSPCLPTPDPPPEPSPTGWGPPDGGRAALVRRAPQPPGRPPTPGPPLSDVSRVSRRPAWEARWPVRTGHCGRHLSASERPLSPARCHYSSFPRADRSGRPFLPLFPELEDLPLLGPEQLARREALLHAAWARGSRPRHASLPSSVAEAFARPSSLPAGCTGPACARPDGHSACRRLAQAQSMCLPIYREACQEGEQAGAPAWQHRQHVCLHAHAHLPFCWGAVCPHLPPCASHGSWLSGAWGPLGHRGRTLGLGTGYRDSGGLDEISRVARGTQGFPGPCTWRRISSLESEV
Kind of test: Two electrode voltage clamp, Xenopus laevis oocytes expressing NR1/NR2C. The test is classed as cell-based. The following applies: for IC50: fitted to composite concentration-effect data, read-out: 2C IC50; for Emax: maximal effect of fit, read-out: 2C Max; for activity at 100 µM: read-out: 2C percent effect at the maximum tested concentration.
Excerpt: Values are mean+SEM (n=14-20). […] C is the closed level; broken line is the open level.
The Hill slope at both receptors for all analogues was greater than 1, consistent with a cooperative effect of binding at two sites.
as §1

In a further test the target is T3, NR1/NR2A (Homo sapiens, UniProt Q12879).
T3 construct: expressed in transfected cells; host or cells: Xenopus laevis oocytes
T3 sequence (Q12879 23-1464, species assumed, other chains not shown): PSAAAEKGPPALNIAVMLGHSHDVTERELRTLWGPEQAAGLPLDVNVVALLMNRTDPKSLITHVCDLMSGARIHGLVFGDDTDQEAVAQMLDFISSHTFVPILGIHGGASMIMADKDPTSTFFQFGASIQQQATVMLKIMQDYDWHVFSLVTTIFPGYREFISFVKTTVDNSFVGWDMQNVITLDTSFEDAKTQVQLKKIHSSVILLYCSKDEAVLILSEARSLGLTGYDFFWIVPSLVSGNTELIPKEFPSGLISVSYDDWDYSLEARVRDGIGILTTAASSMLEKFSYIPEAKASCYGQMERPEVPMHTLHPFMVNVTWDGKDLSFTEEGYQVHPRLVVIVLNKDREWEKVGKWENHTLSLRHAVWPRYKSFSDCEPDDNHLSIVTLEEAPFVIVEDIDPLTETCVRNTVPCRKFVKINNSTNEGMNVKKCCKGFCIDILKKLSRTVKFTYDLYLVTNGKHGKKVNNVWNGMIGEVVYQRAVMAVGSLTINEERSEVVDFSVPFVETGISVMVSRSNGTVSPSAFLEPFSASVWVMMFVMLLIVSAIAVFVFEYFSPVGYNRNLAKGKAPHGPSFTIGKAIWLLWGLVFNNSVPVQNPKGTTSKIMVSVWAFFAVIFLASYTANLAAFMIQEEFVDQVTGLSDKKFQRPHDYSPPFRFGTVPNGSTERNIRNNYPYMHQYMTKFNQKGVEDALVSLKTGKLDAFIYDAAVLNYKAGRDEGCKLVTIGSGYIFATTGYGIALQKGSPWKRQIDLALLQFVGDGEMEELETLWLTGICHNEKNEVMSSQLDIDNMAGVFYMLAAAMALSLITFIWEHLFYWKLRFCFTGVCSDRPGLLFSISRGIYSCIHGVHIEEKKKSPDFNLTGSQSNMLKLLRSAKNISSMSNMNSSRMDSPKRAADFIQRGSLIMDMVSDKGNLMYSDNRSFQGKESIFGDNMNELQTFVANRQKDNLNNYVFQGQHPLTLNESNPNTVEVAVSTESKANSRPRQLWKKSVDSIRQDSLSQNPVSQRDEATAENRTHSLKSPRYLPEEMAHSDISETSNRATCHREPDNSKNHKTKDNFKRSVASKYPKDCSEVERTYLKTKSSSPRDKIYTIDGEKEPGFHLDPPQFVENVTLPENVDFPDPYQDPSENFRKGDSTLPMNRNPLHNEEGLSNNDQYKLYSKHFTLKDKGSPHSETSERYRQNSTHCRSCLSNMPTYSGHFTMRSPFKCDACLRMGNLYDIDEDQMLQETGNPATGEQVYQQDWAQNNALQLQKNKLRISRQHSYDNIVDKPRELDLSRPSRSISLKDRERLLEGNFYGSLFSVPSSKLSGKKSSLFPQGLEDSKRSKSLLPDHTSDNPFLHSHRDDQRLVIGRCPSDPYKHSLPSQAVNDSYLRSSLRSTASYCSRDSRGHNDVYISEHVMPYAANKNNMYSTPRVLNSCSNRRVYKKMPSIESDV
Put plainly: Two electrode voltage clamp, Xenopus laevis oocytes expressing NR1/NR2A. The test is classed as cell-based. Conditions: read-out: 2A percent effect at the maximum tested concentration. The procedure: as §1

Where [1] appears, read: read-out: 2B percent effect at the maximum tested concentration.
Setting [2] is: read-out: 2D percent effect at the maximum tested concentration, at 100 μM.

Where two headings read alike, the source gives them in different places.

Consider `COc1ccc(OCC2c3c(cc(OC)cc3OC)CCN2C(=O)c2cccc(Br)c2)cc1` (stereo not shown) [1180-21], for which the values for the activity at 100 µM at NR1/NR2B (setting [1]) and at NR1/NR2A were 72% and 92%, respectively. Also, the IC50 on NR1/NR2D and at NR1/NR2C was 7 µM each time. The Emax at NR1/NR2D was determined as 230%; at NR1/NR2C, 265%.
Consider `COc1cc2c(cc1OC)C(COc1ccc(OCc3ccccc3)cc1)N(C(=O)c1cccc(Cl)c1)CC2` (stereo not shown) [1180-22], for which, at NR1/NR2B (at 20 μM, read-out: 2B percent effect at the maximum tested concentration), the activity at 20 µM was 50%. Besides, the activity at 100 µM on NR1/NR2D (setting [2]) is 58%; on NR1/NR2C, 79%; at NR1/NR2A it was 95%.
On to `COc1ccc(OCC2c3cc(OC)c(OC)cc3CCN2C(=O)N2CCOCC2)cc1` (stereo not shown) [1180-23], for which the activity at 100 µM is 61% on NR1/NR2B (setting [1]), 78% at NR1/NR2D (setting [2]), 87% at NR1/NR2C and 140% on NR1/NR2A.
The like results for `COc1ccc(OCC2c3cc(OC)c(OC)cc3CCN2C(=O)CN2CCOCC2)cc1` (stereo not shown) [1180-24] were, in that order, 96%, 83%, 79% and 100%.
As to `COc1ccc(OCC2c3cc4c(cc3CCN2C(=O)c2cccc(Cl)c2)OCO4)cc1` (stereo not shown) [1180-25], the activity at 100 µM at NR1/NR2B (setting [1]) amounted to 76%; at NR1/NR2A, 96%. Besides, the half-inhibitory concentration (IC50) against NR1/NR2D turned out to be 7 µM; at NR1/NR2C, 12 µM. In addition, the Emax at NR1/NR2D was determined as 162%; at NR1/NR2C it was 188%.
As to `COc1ccc(OCC2c3ccc(OC)cc3CCN2C(=O)c2cccc(Cl)c2)cc1` (stereo not shown) [1180-26], the activity at 100 µM was found to be 75% on NR1/NR2B (setting [1]) and 93% at NR1/NR2A. Moreover, the IC50 against NR1/NR2D was found to be 1 µM; on NR1/NR2C it was 0.8 µM. Moreover, the Emax at NR1/NR2D stood at 185%; at NR1/NR2C, 196%.
For the compound `COc1ccc(OCC2c3ccc(OC)cc3CCN2C(=O)c2cccc(Br)c2)cc1` (stereo not shown) [1180-27], the activity at 100 µM at NR1/NR2B (setting [1]) came out at 77%; at NR1/NR2A, 107%. Further, the IC50 at NR1/NR2D and on NR1/NR2C was 1 µM throughout. Besides, the Emax at NR1/NR2D was determined as 168%; on NR1/NR2C, 192%.
Turning to `COc1cc2c(cc1OC)CN(C(=O)c1ccccc1)CC2` [1180-28], the activity at 100 µM is 95% at NR1/NR2B (setting [1]), 80% at NR1/NR2D (read-out: 2D percent effect at the maximum tested concentration), 78% on NR1/NR2C and 71% at NR1/NR2A.
Take `COc1ccc(/C=C/C2c3cc(OC)c(OC)cc3CCN2C(=O)c2cccc(Cl)c2)cc1` (stereo not shown) [1180-31]: the activity at 30 µM on NR1/NR2B (at 30 μM, read-out: 2B percent effect at the maximum tested concentration) amounted to 82%; at NR1/NR2A (at 30 μM) it was 95%. In addition, the half-inhibitory concentration (IC50) on NR1/NR2D was determined as 1.5 µM; at NR1/NR2C, 1.2 µM. The results for the Emax at NR1/NR2D and on NR1/NR2C were 172% and 190%, respectively.
For `CSC1=NCCN1C(=O)c1ccc(C(C)(C)C)cc1` [compound 1343], the IC50 on NR1/NR2B was 138 µM; on NR1/NR2D, 210 µM; on NR1/NR2C it was 139 µM. For the same compound, the figures for the Emax at NR1/NR2D and at NR1/NR2C were 480% and 303%, respectively. The activity at 100 µM on NR1/NR2A came to 115%.
In the case of `CSC1=NCCN1C(=O)c1ccc(C)cc1` [compound 1344], the half-inhibitory concentration (IC50) on NR1/NR2B was determined as 174 µM. Moreover, the activity at 100 µM is 97% on NR1/NR2D (setting [2]), 88% on NR1/NR2C and 78% at NR1/NR2A.
In the case of `Cc1cc(C(=O)O)c(NC(=O)c2ccc(C(C)(C)C)cc2)s1` [compound 1357], the activity at 100 µM at NR1/NR2B (setting [1]) and at NR1/NR2A was 102% throughout. Moreover, the IC50 is 120 µM against NR1/NR2D and 175 µM on NR1/NR2C. For the same compound, the Emax was 326% at NR1/NR2D and 388% at NR1/NR2C.
As to `CCc1ccc(OCC2c3cc(OC)c(OC)cc3CCN2C(=O)c2ccccc2)cc1` (stereo not shown) [compound 1366], the activity at 100 µM was 97% at NR1/NR2B (setting [1]), 108% at NR1/NR2D (setting [2]) and 98% at NR1/NR2A. The IC50 at NR1/NR2C came out at 3 µM. On NR1/NR2C, the Emax is 121%.
For `COc1ccc(OCC2c3cc(OC)c(OC)cc3CCN2C(=O)c2ccc(Cl)cc2)cc1` (stereo not shown) [compound 1368], the activity at 100 µM on NR1/NR2B (setting [1]) stood at 78%; at NR1/NR2A, 105%. In addition, the half-inhibitory concentration (IC50) against NR1/NR2D turned out to be 5 µM; on NR1/NR2C, 4 µM. Also, the Emax at NR1/NR2D is 114%; at NR1/NR2C, 135%.
For `COc1ccc(OCC2c3cc(OC)c(OC)cc3CCN2C(=O)c2cccc(F)c2)cc1` (stereo not shown) [compound 1369], the activity at 100 µM at NR1/NR2B (setting [1]) was determined as 84%; at NR1/NR2A, 94%. Besides, the IC50 on NR1/NR2D and on NR1/NR2C was 7 µM in each case. In addition, the Emax at NR1/NR2D is 169%; on NR1/NR2C it was 184%.
Consider `COc1ccc(OCC2c3cc(OC)c(OC)cc3CCN2C(=O)c2ccc([N+](=O)[O-])cc2)cc1` (stereo not shown) [compound 1370], for which the activity at 100 µM on NR1/NR2B (setting [1]) is 78%; on NR1/NR2D (setting [2]) it was 95%; on NR1/NR2C, 83%; at NR1/NR2A, 77%.
As for `COc1ccc(OCC2c3cc(OC)c(OC)cc3CCN2C(=O)c2ccc(C)cc2)cc1` (stereo not shown) [compound 1371], the activity at 100 µM on NR1/NR2B (setting [1]) turned out to be 70%; at NR1/NR2D (setting [2]), 100%; at NR1/NR2C, 89%; on NR1/NR2A, 73%.
For `COc1ccc(OCC2c3cc(OC)c(OC)cc3CCN2C(=O)c2cccc(Cl)c2)cc1` (stereo not shown) [compound 1390], the values for the activity at 100 µM on NR1/NR2B (setting [1]) and at NR1/NR2A were 82% and 115%, respectively. Also, the IC50 against NR1/NR2D and on NR1/NR2C was 3 µM throughout. In addition, the Emax at NR1/NR2D was 205%; at NR1/NR2C, 215%.
With `COc1ccc(OCC2c3cc(OC)c(OC)cc3CCN2C(=O)c2cccc(Br)c2)cc1` (stereo not shown) [compound 1391], the activity at 100 µM at NR1/NR2B (setting [1]) came to 74%; at NR1/NR2A, 119%. Also, the IC50 against NR1/NR2D was found to be 2 µM; at NR1/NR2C, 1 µM. Besides, the Emax on NR1/NR2D is 188%; at NR1/NR2C it was 195%.
Take `COc1ccc(OCC2c3cc(OC)c(OC)cc3CCN2C(=O)c2cccc(OC)c2)cc1` (stereo not shown) [compound 1392]: the activity at 100 µM on NR1/NR2B (setting [1]) turned out to be 59%; on NR1/NR2A, 104%. Also, the IC50 came to 12 µM on NR1/NR2D and 6 µM on NR1/NR2C. The Emax on NR1/NR2D worked out at 179%; at NR1/NR2C, 181%.
Regarding `COc1ccc(OCC2c3cc(OC)c(OC)cc3CCN2C(=O)c2ccc(Br)cc2)cc1` (stereo not shown) [compound 1393], the activity at 100 µM on NR1/NR2B (setting [1]) was 80%; on NR1/NR2D (setting [2]), 94%; on NR1/NR2C, 96%; at NR1/NR2A it was 120%.
Consider `COc1cc2c(cc1OC)C(COc1ccc(F)cc1)N(C(=O)c1cccc(F)c1)CC2` (stereo not shown) [compound 1394], for which the activity at 100 µM at NR1/NR2B (setting [1]) amounted to 61%; on NR1/NR2D (setting [2]), 68%; on NR1/NR2C, 71%; on NR1/NR2A, 101%.
The like results for `Cc1ccc(C(=O)Nc2sc(C)cc2C(=O)O)cc1` [compound 1395] were, in that order, 94%, 77%, 95% and 92%.
The like results for `Cc1cc(C(=O)O)c(NC(=O)c2ccccc2)s1` [compound 1396] were, in that order, 97%, 81%, 95% and 96%.
